Results: US12012392B2, “Sulfonamide carboxamide compounds” (Inflazome Limited, priority 2017, dated 2024)
Counter-ions that a name gives are not always drawn.

What was measured:
NLRP3 [1] = target: T1, NLRP3 (Homo sapiens, UniProt Q96P20); assay: Human whole blood IL1β release assay; format: cell-based; parameters: Plate out 80 μl of whole blood containing 1 μg/ml of LPS; from tissue; host or cells: human whole blood from healthy donors, LPS-primed, nigericin-stimulated; settings: LPS 1 μg/ml, nigericin 10 μM, IL-1β AlphaLisa, read-out: HWB IC50
T1 sequence (Q96P20 whole entry): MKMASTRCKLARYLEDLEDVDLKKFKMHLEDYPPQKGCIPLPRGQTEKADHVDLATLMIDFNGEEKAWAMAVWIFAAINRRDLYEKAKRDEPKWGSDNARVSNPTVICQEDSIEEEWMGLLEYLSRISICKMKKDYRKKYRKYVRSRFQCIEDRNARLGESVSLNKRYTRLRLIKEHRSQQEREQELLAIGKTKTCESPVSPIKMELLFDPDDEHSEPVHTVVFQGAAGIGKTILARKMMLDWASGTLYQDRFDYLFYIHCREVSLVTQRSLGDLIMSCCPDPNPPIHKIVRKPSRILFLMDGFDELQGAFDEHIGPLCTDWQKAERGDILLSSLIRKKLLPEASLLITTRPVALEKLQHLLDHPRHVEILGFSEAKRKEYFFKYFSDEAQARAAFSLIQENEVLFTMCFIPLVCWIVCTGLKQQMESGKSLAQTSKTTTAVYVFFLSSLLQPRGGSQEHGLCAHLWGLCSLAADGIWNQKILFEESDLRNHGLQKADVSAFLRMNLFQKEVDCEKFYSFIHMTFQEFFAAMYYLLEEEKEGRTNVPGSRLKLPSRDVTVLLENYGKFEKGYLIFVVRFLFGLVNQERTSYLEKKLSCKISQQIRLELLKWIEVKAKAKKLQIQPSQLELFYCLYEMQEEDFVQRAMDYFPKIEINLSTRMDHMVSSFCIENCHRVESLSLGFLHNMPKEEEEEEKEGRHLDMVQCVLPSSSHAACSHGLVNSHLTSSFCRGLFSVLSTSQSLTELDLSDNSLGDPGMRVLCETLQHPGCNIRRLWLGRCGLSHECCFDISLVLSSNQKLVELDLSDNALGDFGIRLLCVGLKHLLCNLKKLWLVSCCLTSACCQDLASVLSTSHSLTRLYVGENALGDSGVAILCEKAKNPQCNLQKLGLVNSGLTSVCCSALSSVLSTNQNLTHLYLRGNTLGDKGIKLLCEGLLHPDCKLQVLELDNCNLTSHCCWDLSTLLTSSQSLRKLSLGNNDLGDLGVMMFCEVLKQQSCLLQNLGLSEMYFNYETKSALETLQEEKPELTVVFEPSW
Method: For systemic delivery, the ability to inhibit NLRP3 when the compounds are present within the bloodstream is of great importance. For this reason, the NLRP3 inhibitory activity of a number of compounds in human whole blood was investigated in accordance with the following protocol.
Human whole blood in Li-heparin tubes was obtained from healthy donors from a volunteer donor panel. • 1. Plate out 80 μl of whole blood containing 1 μg/ml of LPS in 96-well, clear bottom cell culture plate (Corning #3585) • 2. Add […] compound (8 points half-log dilution with 10 μM top dose) or vehicle (DMSO 0.1% FAC) to the appropriate wells • 3. Incubate for 3 hrs at 37° C., 5% CO2 • 4. Add 10 μl Nigericin (Sigma #N7143) (10 μM FAC) to all wells • 5. Incubate for 1 hr at 37° C., 5 CO2 • 6. At the end of the incubation period, spin plates at 300×g for 5 mins to pellet cells and remove 20 μl of supernatant and add to 96-well v-bottom plates for […] analysis (note: these plates containing the supernatants can be stored at −80° C. to be analysed at a later date) • 7. IL-1β was measured according to the manufacturer protocol (Perkin Elmer-AlphaLisa IL-1 Kit AL220F-5000) • 8. IC50 data is fitted to anon-linear regression equation (log inhibitor vs response-variable slope 4-parameters)

NLRP3 [2] = target: T1, NLRP3; assay: THP-1 cells pyroptosis assay; format: cell-based; parameters: Seed THP-1 cells (25,000 cells/well) containing 1.0 μg/ml LPS; host or cells: THP-1 cells, LPS-primed, nigericin-stimulated; settings: LPS 1 μg/ml, nigericin 5 μM, resazurin read-out
Method: THP-1 cells (ATCC #TIB-202) were grown in RPMI containing L-glutamine (Gibco #11835) supplemented with 1 mM sodium pyruvate (Sigma #S8636) and penicillin (100 units/ml)/streptomycin (0.1 mg/ml) (Sigma #P4333) in 10% Fetal Bovine Serum (FBS) (Sigma #F0804). The cells were routinely passaged and grown to confluency (˜10^6 cells/ml). On the day of the experiment, THP-1 cells were harvested and resuspended into RPMI medium (without FBS). The cells were then counted and viability (>90%) checked by Trypan blue (Sigma #T8154). Appropriate dilutions were made to give a concentration of 625,000 cells/ml. To this diluted cell solution was added LPS (Sigma #L4524) to give a 1 μg/ml Final Assay Concentration (FAC). 40 μl of the final preparation was aliquoted into each well of a 96-well plate. The plate thus prepared was used for compound screening.
The following method step-by-step assay was followed for compound screening. • 1. Seed THP-1 cells (25,000 cells/well) containing 1.0 μg/ml LPS in 40 μl of RPMI medium (without FBS) in 96-well, black walled, clear bottom cell culture plates coated with poly-D-lysine (VWR #734-0317) • 2. Add 5 μl compound (8 points half-log dilution, with 10 μM top dose) or vehicle (DMSO 0.1% FAC) to the appropriate wells • 3. Incubate for 3 hrs at 37° C. and 5% CO2 • 4. Add 5 μl nigericin (Sigma #N7143) (FAC 5 μM) to all wells • 5. Incubate for 1 hr at 37° C. and 5% CO2 • 6. At the end of the incubation period, spin plates at 300×g for 3 mins and remove supernatant • 7. Then add 50 μl of resazurin (Sigma #R7017) (FAC 100 μM resazurin in RPMI medium without FBS) and incubate plates for a further 1-2 hrs at 37° C. and 5% CO2 • 8. Plates were read in an Envision reader at Ex 560 nm and Em 590 nm • 9. IC50 data is fitted to a non-linear regression equation (log inhibitor vs response-variable slope 4-parameters) 96-Well Plate Map

IC50 (NLRP3 [1]) [µM] | IC50 (NLRP3 [2]) [µM] | Compound
0.4 to 0.8 | < 0.04 | CC(C)(O)Cn1ccc(S(=O)(=O)NC(=O)Nc2c3c(c(F)c4c2CCC4)CCC3)n1 [Example 106]
3.2 to 10 | 0.64 to 2.56 | COC(C)(C)Cn1ccc(S(=O)(=O)NC(=O)Nc2c(C(C)C)cc(F)cc2C(C)C)n1 [Example 17, N-((4-Fluoro-2,6-diisopropylphenyl)carbamoyl)-1-(2-methoxy-2-methylpropyl)-1H-pyrazole-3-sulfonamide]
0.8 to 1.6 | 0.04 to 0.16 | CC(C)(CO)n1ccc(S(=O)(=O)NC(=O)Nc2c3c(cc4c2CCC4)CCC3)n1 [Example 20, N-((1,2,3,5,6,7-Hexahydro-s-indacen-4-yl)carbamoyl)-1-(1-hydroxy-2-methylpropan-2-yl)-1H-pyrazole-3-sulfonamide]
< 0.4 | < 0.04 | COc1cc(-c2ccc3c(c2NC(=O)NS(=O)(=O)c2ccn(CC(C)(C)OC)n2)CCC3)ccn1 [Example 95]
3.2 to 10 | 0.64 to 2.56 | CC1(Cn2ccc(S(=O)(=O)NC(=O)Nc3c4c(cc5c3CCC5)CCC4)n2)COC1 [Example 9, N-((1,2,3,5,6,7-Hexahydro-s-indacen-4-yl)carbamoyl)-1-((3-methyloxetan-3-yl)methyl)-1H-pyrazole-3-sulfonamide, partial ammonium salt]
3.2 to 10 | 0.64 to 2.56 | CC(C)c1cc(Cl)cc(C(C)C)c1NC(=O)NS(=O)(=O)c1ccn(C2CCOCC2)n1 [Example 32, N-((4-Chloro-2,6-diisopropylphenyl)carbamoyl)-1-(tetrahydro-2H-pyran-4-yl)-1H-pyrazole-3-sulfonamide]
< 0.4 | 0.04 to 0.16 | COc1cc(-c2ccc3c(c2NC(=O)NS(=O)(=O)c2ccn(C4CCOC4)n2)CCC3)ccn1 (centres unmarked) [Example 97]
3.2 to 10 | 0.64 to 2.56 | CC(C)c1cc(Cl)cc(C(C)C)c1NC(=O)NS(=O)(=O)c1ccn(CC(C)(C)O)n1 [Example 19, N-((4-Chloro-2,6-diisopropylphenyl)carbamoyl)-1-(2-hydroxy-2-methylpropyl)-1H-pyrazole-3-sulfonamide]
< 0.4 | < 0.04 | N#Cc1cc(-c2ccc3c(c2NC(=O)NS(=O)(=O)c2ccn(C4CCOC4)n2)CCC3)ccn1 (centres unmarked) [Example 91]
< 0.4 | < 0.04 | COc1cc(-c2ccc3c(c2NC(=O)NS(=O)(=O)c2cc(C4(OC)COC4)n(C)n2)CCC3)ccn1 [Example 98]
< 0.4 | 0.16 to 0.64 | COc1cc(-c2cc(F)cc(C(C)C)c2NC(=O)NS(=O)(=O)c2cc(C3(OC)COC3)n(C)n2)ccn1 [Example 40, N-((4-Fluoro-2-isopropyl-6-(2-methoxypyridin-4-yl)phenyl)carbamoyl)-5-(3-methoxyoxetan-3-yl)-1-methyl-1H-pyrazole-3-sulfonamide]
0.8 to 1.6 | 0.04 to 0.16 | O=C(Nc1c2c(cc3c1CCC3)CCC2)NS(=O)(=O)c1ccn(CC(O)C(F)(F)F)n1 (centres unmarked) [Example 30, N-((1,2,3,5,6,7-Hexahydro-s-indacen-4-yl)carbamoyl)-1-(3,3,3-trifluoro-2-hydroxypropyl)-1H-pyrazole-3-sulfonamide]
0.8 to 1.6 | 0.16 to 0.64 | COC1(c2cc(S(=O)(=O)NC(=O)Nc3c(-c4cccnc4)cc(F)c4c3CCC4)nn2C)COC1 [Example 35, N-((7-Fluoro-5-(pyridin-3-yl)-2,3-dihydro-1H-inden-4-yl)carbamoyl)-5-(3-methoxyoxetan-3-yl)-1-methyl-1H-pyrazole-3-sulfonamide]
0.8 to 1.6 | 0.16 to 0.64 | C[C@@H](O)Cn1cc(S(=O)(=O)NC(=O)Nc2c3c(cc4c2CCC4)CCC3)nn1 [Example 103]
0.8 to 1.6 | 0.16 to 0.64 | Cn1nc(S(=O)(=O)NC(=O)Nc2c3c(cc4c2CCC4)CCC3)cc1C1(O)CCOCC1 [Example 55, N-((1,2,3,5,6,7-Hexahydro-s-indacen-4-yl)carbamoyl)-5-(4-hydroxytetrahydro-2H-pyran-4-yl)-1-methyl-1H-pyrazole-3-sulfonamide]
< 0.4 | < 0.04 | COc1cc(-c2ccc3c(c2NC(=O)NS(=O)(=O)c2ccn(C[C@@H](C)O)n2)CCC3)ccn1 [Example 94]
3.2 to 10 | 0.04 to 0.16 | O=C(Nc1c2c(cc3c1CCC3)CCC2)NS(=O)(=O)c1ccn(CC2CCCO2)n1 (single isomer, unassigned) [Example 4]
< 0.4 | 0.16 to 0.64 | Cn1nc(S(=O)(=O)NC(=O)Nc2c3c(cc4c2CCC4)CCC3)cc1C(=O)N(CCO)CCO [Example 61, 3-(N-((1,2,3,5,6,7-Hexahydro-s-indacen-4-yl)carbamoyl)sulfamoyl)-N,N-bis(2-hydroxyethyl)-1-methyl-1H-pyrazole-5-carboxamide]
0.8 to 1.6 | 0.16 to 0.64 | CCN(CCO)C(=O)c1cc(S(=O)(=O)NC(=O)Nc2c3c(cc4c2CCC4)CCC3)nn1C [Example 66, N-Ethyl-3-(N-((1,2,3,5,6,7-hexahydro-s-indacen-4-yl)carbamoyl)sulfamoyl)-N-(2-hydroxyethyl)-1-methyl-1H-pyrazole-5-carboxamide]
0.4 to 0.8 | 0.04 to 0.16 | O=C(Nc1c2c(cc3c1CCC3)CCC2)NS(=O)(=O)c1ccn(C2CCCC2O)n1 (racemic) [Example 22, N-((1,2,3,5,6,7-Hexahydro-s-indacen-4-yl)carbamoyl)-1-(2-hydroxycyclopentyl)-1H-pyrazole-1-sulfonamide]
1.6 to 3.2 | 0.04 to 0.16 | COC1(c2cc(S(=O)(=O)NC(=O)Nc3c4c(cc5c3CCC5)CCC4)nn2C(C)(C)C)COC1 [Example 39, 1-(tert-Butyl)-N-((1,2,3,5,6,7-hexahydro-s-indacen-4-yl)carbamoyl)-5-(3-methoxyoxetan-3-yl)-1H-pyrazole-3-sulfonamide]
< 0.4 | < 0.04 | COc1cc(-c2ccc3c(c2NC(=O)NS(=O)(=O)c2ccn(CC(C)(C)O)n2)CCC3)ccn1 [Example 96]
